Laboratory results reported in paper PMC7281472, “CYC31, A Natural Bromophenol PTP1B Inhibitor, Activates Insulin Signaling and Improves Long Chain-Fatty Acid Oxidation in C2C12 Myotubes” (Marine Drugs, 2020).

Biological target: T1, protein tyrosine phosphatase 1B (PTP1B) (Homo sapiens, UniProt P18031)
T1 construct: gene PTPN1; PTP1B1-321
T1 sequence (P18031 1-321): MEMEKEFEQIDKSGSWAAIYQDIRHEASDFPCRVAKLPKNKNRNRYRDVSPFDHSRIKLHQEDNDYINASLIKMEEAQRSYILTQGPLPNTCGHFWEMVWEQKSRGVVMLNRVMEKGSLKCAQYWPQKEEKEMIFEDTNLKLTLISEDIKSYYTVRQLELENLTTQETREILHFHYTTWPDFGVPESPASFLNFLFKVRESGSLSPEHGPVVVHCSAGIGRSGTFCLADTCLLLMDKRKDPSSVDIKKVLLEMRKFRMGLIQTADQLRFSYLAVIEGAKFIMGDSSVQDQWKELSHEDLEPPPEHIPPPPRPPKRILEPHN
Test: pNPP hydrolysis assay with recombinant human PTP1B, absorbance at […] nm
Format: biochemical

## Oc1cc(Cc2cc(O)c(O)c(Br)c2Cc2cc(O)c(O)c(Br)c2Br)c(Br)c(Br)c1O [CYC31, 3-bromo-4,5-Bis(2,3-dibromo-4,5-dihydroxybenzyl)-1,2-benzenediol]
  pNPP hydrolysis assay with recombinant human PTP1B, absorbance at 405 nm: As shown in Figure 1B, PTP1B was significantly inactivated by CYC31 in a concentration-dependent manner.
